Laboratory results: ChEMBL document CHEMBL5604062, “ASAP - ZIKV NS2B-NS3 protease fluorescence dose response” (2024)
“And” between values parts separate entries of the source, which are not always exact repeats. Equal entries are not always repeated.

Molecular target: Nonstructural protein 3 (Zika virus, UniProt A0A024AXB9)
Assay: Functional biochemical assay to identify treatments for viral infectious disease that targets Zika NS2B-NS3 protease. Utilizing a direct enzyme activity measurement method, reading the fluorescence intensity is used to characterize the relative potency of inhibitors as IC50.
Set-up: species or system PRVABC59

Sequence of Nonstructural protein 3 (A0A024AXB9 whole entry): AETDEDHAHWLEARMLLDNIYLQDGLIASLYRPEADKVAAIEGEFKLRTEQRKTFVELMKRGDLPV

SMILES | IC50
NCc1ccc(NC(=O)[C@H]2[C@H]3CCCCC[C@H]3[C@H]2NC(=O)OCc2ccccc2)cc1 | 36.6 µM
CCn1cc(Cl)nc(N2CC[C@@H](CO)C2)c1=O | > 99.5 µM
Cc1cc(C(=O)Nc2cccc(CN)c2)n2nc(C(F)(F)F)cc2n1 | > 99.5 µM
O=C(Nc1cc(-c2cccnc2)ccn1)c1cn([C@H]2CCCNC2)nn1 | > 25 µM
O=C(N[C@@H](C(=O)N[C@H]1CCCNC1)c1ccc(OCc2ccccc2)cc1)OCc1ccccc1 | > 99.5 µM
Cn1cc2c(C(=O)Nc3ccc4c(c3)CNC4)cc(Cl)cc2n1 | 0.159 µM
Cc1nc2c(C(=O)Nc3ccc4c(c3)CNC4)cccc2[nH]1 | 3.63 µM
NCc1cccc(NC(=O)[C@H](NC(=O)OCc2ccccc2)c2cccc(OCc3ccncc3)c2)c1 | > 99.5 µM
O=C1Cc2c(cccc2C(=O)Nc2ccc3[nH]nnc3c2)N1 | > 25 µM
Cc1c(C(=O)Nc2cccc(CN)c2)cc(C2CC2)n1C | > 99.5 µM
NCc1cccc(Oc2ccc(S(=O)(=O)Nc3ccc(Cl)cc3C(=O)NCC(F)(F)F)cc2)c1 | > 99.5 µM
O=C(Nc1cccc(-n2nn[nH]c2=O)c1)c1cc(Cl)cc2c1CCC2 | > 99.5 µM
NCc1cc(NC(=O)c2cc(Cl)cc(NC(=O)OCc3ccccc3)c2)cc(-c2ccc(OCC(=O)O)nc2)c1 | > 25 µM
COc1nnc(C(F)(F)F)cc1-c1ccc2[nH]c(C(=O)O)cc2c1 | > 99.5 µM
NCc1cccc(NC(=O)[C@H](NC(=O)[C@H]2CCOC2)c2ccc(OCc3ccccc3)cc2)c1 | > 99.5 µM
NCCc1ccc(NC(=O)c2cc(Cl)cc(CN)c2)cc1 | 8.04 µM
NCc1cccc(NC(=O)[C@H](NC(=O)c2ccns2)c2ccc(OCc3ccccc3)cc2)c1 | 95.2 µM
O=C1CCN(c2cc(Cl)cc(C(=O)Nc3ccc4c(c3)CNC4)c2)C(=O)N1 | 1.23 µM
COc1cc(-c2cc(Cl)cc(NC(=O)OCc3ccccc3)c2)c(OC)cc1CC(=O)O | 94.2 µM
C=CC[C@H](Nc1cc(CN)ccn1)c1cc(Cl)cc(NC(=O)OCc2ccccc2)c1 | > 99.5 µM
Cc1cnc(Oc2ccc(S(=O)(=O)Nc3ccc(Cl)cc3C(=O)O)cc2)cn1 | > 99.5 µM

SMILES | IC50
NCc1cccc(NC(=O)[C@H](NC(=O)OCc2ccccc2)C2CCN(C(=O)[C@H]3C[C@H](O)C3)CC2)c1 | > 99.5 µM
O=c1[nH]c2cccc(N3CCN(Cc4c[nH]c5ccccc45)CC3)c2o1 | > 99.5 µM
Cn1cc(C(=O)O)c(NS(=O)(=O)c2ccc(Oc3ccccc3Cl)cc2)n1 | > 99.5 µM
O=C(Nc1cc([C@H]2CCOC2)ccn1)c1ccc2ncsc2c1 | > 25 µM
c1ccc2c([C@H]3CCN(CC[C@H]4CCCO4)C3)c[nH]c2c1 | > 99.5 µM
c1cc(Cc2noc(CCc3cscn3)n2)no1 | > 99.5 µM
Nc1n[nH]c2cc(C(=O)Nc3ccc4c(c3)CNC4)ccc12 | > 25 µM
CN(C)Cc1cncc(NC(=O)[C@@H](NC(=O)OCc2ccccc2)c2ccc(OCc3ccccc3)cc2)c1 | > 99.5 µM
Cn1cc(N2CCN(Cc3c[nH]c4ccccc34)CC2)cn1 | > 99.5 µM
O=c1[nH]ncn1C1CCN(Cc2c[nH]c3ccccc23)CC1 | 34.1 µM
O=C1OCc2ccc(NC(=O)c3cc(F)cc4[nH]ncc34)cc21 | > 25 µM
N#Cc1ccc2[nH]cc(Cc3ccc(-c4nnn[nH]4)cc3)c2c1 | > 99.5 µM
CCn1cc(-c2ccccc2C(=O)OC)nc(N2CC[C@@H](CO)C2)c1=O | > 99.5 µM
O=C(Nc1ccc2c(c1)CNC2)c1cc(F)cc(C2=CCCOC2)c1 | 0.295 µM
CC1(NC(=O)c2cccc3c2CC(=O)N3)CCOCC1 | > 25 µM
N#Cc1cccc2[nH]cc(CN3CCC(c4cscn4)CC3)c12 | > 99.5 µM
Cc1nnc(SC[C@H]2CCCN2C(=O)Nc2ccc3c(c2)CNC3)s1 | 5.77 µM
CC(C)(C)c1ccc(Cl)cc1C(=O)Nc1ccc2c(c1)CNC2 | 2.46 µM
C[C@](O)(Cc1cc(Cl)cc(NC(=O)OCc2ccccc2)c1)c1cccc(CN)c1 | > 99.5 µM
O=C(Nc1ccc2c(c1)CNC2)c1cc(Cl)cc2nccnc12 | 3.34 µM
CNC(=O)[C@H](Nc1ccc(-c2nnn[nH]2)cc1)c1cc(Cl)cc(C2CC2)c1 | > 99.5 µM

SMILES | IC50
C[C@](C#N)(Nc1ccc2c(c1)CNC2)c1cccc(Cl)c1 | > 25 µM
Brc1csc(CNCCc2nnc[nH]2)c1 | > 99.5 µM
CCOc1cccc(-c2ccc(S(=O)(=O)Nc3cc(F)c(Cl)cc3C(=O)O)cc2)c1 | 8.18 µM
O=C(Nc1cc(Cl)cc(C(=O)Nc2cccc(CN3CCCC3=O)c2)c1)OCc1ccccc1 | > 99.5 µM
N#Cc1cccc2c(CN3CCC(c4cscn4)CC3)c[nH]c12 | > 99.5 µM
Cc1cc(C(=O)Nc2cccc(CN)c2)cc(NC(=O)OCc2ccccc2)c1Cl | 39 µM
N#C[C@H](Nc1cc(Cl)cc(C2CC2)c1)c1ccc(-c2nn[nH]n2)cc1 | 75.8 µM
COC(=O)c1cc(Br)cc2c(Cc3ccc(-c4nnn[nH]4)cc3)c[nH]c12 | > 99.5 µM
Cc1c(NC(=O)OCc2ccccc2)cc(C(=O)Nc2cccc(CN)c2)cc1C(F)(F)F | > 99.5 µM
O=C(Nc1ccc2c(c1)CNC2)c1nc2ccccc2s1 | > 25 µM
CN(C(=O)c1cc(Cl)cc(NC(=O)OCc2ccccc2)c1)c1ccc(CN)cc1 | > 99.5 µM
O=C(Nc1cc2c(c(-c3c[nH]c(=O)c(F)c3)c1)CNC2)c1cc(F)cc2[nH]ncc12 | 0.025 µM and 0.015 µM
CCn1ccnc(N2CC[C@H](c3cccc(C#N)c3)C2)c1=O | > 99.5 µM
O=C(N[C@@H](C(=O)NCc1cccc(CN2CCCCC2)c1)c1ccc(OCc2ccccc2)cc1)OCc1ccccc1 | > 99.5 µM
CCOC(=O)c1ncoc1CNC(=O)[C@H](Nc1ccc2c(c1)CNC2)c1cc(Cl)cc(C2CC2)c1 | 0.297 µM
Cc1nc(C2CC2)[nH]c1C(=O)Nc1cc(CCCN)ccn1 | > 25 µM
NCc1cccc(NC(=O)[C@H](NC(=O)OCc2ccccc2)c2ccc(OCc3ccncn3)cc2)c1 | 83 µM
CS(=O)(=O)Nc1c(Cl)cc(Cl)cc1C(=O)Nc1cccc(CN)c1 | > 99.5 µM
O=S(=O)(Nc1ccc2c(c1)CNC2)c1cccc2[nH]ncc12 | > 25 µM

The next lines start with the values.

IC50 | SMILES
0.131 µM | O=C(Nc1ccc2c(c1)CNC2)c1cc(F)cc2[nH]c(CCc3cccnc3)nc12
> 99.5 µM | CC(C)Oc1ccc(S(=O)(=O)Nc2ccc(Cl)cc2C(=O)O)cc1
> 25 µM | O=C(Nc1cc([C@H]2CCOC2)ccn1)c1cc(F)c2[nH]ccc2c1
> 99.5 µM | CN1C(=O)C[C@H](C(=O)Nc2cccc(CN)c2)[C@H]1c1ccc(Cl)c(Cl)c1
0.952 µM | O=C(O)C[C@H]1NCc2cc(NC(=O)c3cc(Cl)cc4[nH]ncc34)ccc21
> 99.5 µM | O=C(O)c1cc(Cl)ccc1S(=O)(=O)NC1CCN(S(=O)(=O)Cc2ccccc2)CC1
> 99.5 µM | CC[C@@H](C)c1nc(C)cc(N2CCC(n3ncc(N)c3C(F)(F)F)CC2)n1
22.1 µM | c1ccc2c(CN3CCC(c4cscn4)CC3)c[nH]c2c1
> 25 µM | Cc1c(C(=O)Nc2ccc3c(c2)CCS3(=O)=O)cc(C2CC2)n1C
32.9 µM | O=C(O)c1cc2cc(-c3cc(Cl)cc(C4CC4)c3)ccc2[nH]1
> 99.5 µM | O=C(c1cc(Cl)ccc1NS(=O)(=O)c1ccc(Oc2ccccc2Cl)cc1)N1CCC[C@@H]1CO
14 µM | O=C(Nc1cc(Cl)cc(-c2cc(NCc3ccccc3)c(C(=O)O)cn2)c1)OCc1ccccc1
> 25 µM | O=C1CC[C@H]2[C@H](CCN2C(=O)c2ccc3c(c2)CNC3)N1
> 99.5 µM | CCn1c(=O)c(N2CCC[C@H]2c2ncccn2)nc2ccccc21
13.1 µM and 12.9 µM | C[C@@H](N)c1cccc(NC(=O)[C@H]2[C@H]3CCCCC[C@H]3[C@H]2NC(=O)OCc2ccccc2)c1
1.19 µM | Cc1[nH]c2c(C(=O)Nc3ccc4c(c3)CNC4)cccc2c1C
> 99.5 µM | NCc1cccc([C@@H]2[C@H](C(=O)O)[C@H]2c2cc(N)cc(Cl)c2)c1
70.5 µM | CS(=O)(=O)c1ccc(-c2cccc([C@H](NC(=O)OCc3ccccc3)C(=O)Nc3cccc(CN)c3)c2)cc1
1.6 µM | CCc1ncc(Cl)cc1C(=O)Nc1ccc2c(c1)CNC2
> 99.5 µM | CCC1CN(C(=O)c2cc(Cl)ccc2NS(=O)(=O)c2ccc(Oc3ccccc3Cl)cc2)C1
> 25 µM | O=C(Nc1cc(-c2cccnc2)ccn1)c1csc(C[C@H]2CCCNC2)n1
> 99.5 µM | C[C@@H]1CNC[C@H]1c1ccc(NC(=O)c2ccc3c(c2)SCCN3)cc1

IC50 | SMILES
0.382 µM | O=C(Nc1ccc2c(c1)CNC2)c1cccc2ccncc12
> 99.5 µM | CCn1c(=O)c(N2C[C@H](C)C[C@H]2c2ccccc2)nc2ccccc21
> 99.5 µM | NCc1cccc(NC(=O)C[C@@H]2[C@H]3CC[C@H](C3)N2C(=O)OCc2ccccc2)c1
> 25 µM | Cc1c(C(=O)Nc2cc(CCCN)ccn2)cc(C#N)n1C
60.4 µM | CCCC[C@H](NC(C)=O)C(=O)N[C@H](C(=O)NCc1ccc(CN)cc1)c1ccc(OCc2ccccc2)cc1
> 99.5 µM | NCc1cccc(NC(=O)[C@H](NC(=O)OCc2ccccc2)C2CCN(C(=O)C3CCOCC3)CC2)c1
> 99.5 µM | NCc1cccc(NC(=O)c2nc(=O)cc(NC(=O)OCc3ccccc3)[nH]2)c1
> 25 µM | N#C[C@H](Nc1ccc2c(c1)CNC2)c1ccnc(C(F)(F)F)c1
> 99.5 µM | NCc1cccc(NC(=O)c2ccc(=O)n(Cc3ccccc3Cl)c2)c1
> 99.5 µM | CCc1cc(C(=O)Nc2cccc(-c3nnn[nH]3)c2)ccc1Cl
2.1 µM | NCc1cccc(NC(=O)c2cc(Cl)cc(NC(=O)NCc3ccccc3)c2)c1
7.36 µM and 6.03 µM | NCc1cccc([C@H]2C[C@@H]2c2cc(Cl)cc(NC(=O)OCc3ccccc3)c2)c1
> 198 µM | N=C(N)NCCc1ccc(NC(=O)C(=O)c2ccccc2)cc1
> 99.5 µM | OCCOc1cc(COc2cccnc2F)nc(N2CCNCC2)n1
> 99.5 µM | Brc1nc(Br)n(Cc2cscn2)n1
> 99.5 µM | CC(F)(F)c1cccc(NC(=O)c2cc(Cl)cc(NC(=O)OCc3ccccc3)c2)c1
> 99.5 µM | CCn1ccnc(-n2cc([C@@H]3NC(=O)NC3=O)c3ccccc32)c1=O
5.86 µM | NCc1cc(F)cc(NC(=O)c2cc(Cl)cc(NC(=O)OCc3ccccc3)c2)c1
5.84 µM and > 25 µM | Cc1c(C(=O)Nc2cc(-c3cccnc3)ccn2)cc(C2CC2)n1C
> 25 µM | O=C(Nc1cc([C@H]2CCOC2)ccn1)c1cc(Cl)cc2[nH]ncc12
0.163 µM | CCc1ccc(-c2nc3c(C(=O)Nc4ccc5c(c4)CNC5)cc(Cl)cc3[nH]2)cc1
